Bridge positions count the residues as written; N and C are the ends. Peptide text beside a SMILES is read from it. * marks the point of attachment. FITC = O=C1OC2(c3ccc(O)cc3Oc3cc(O)ccc32)c2ccc(NC(=S)*)cc21
Experiments:
[1] = system: TGFβ1/p38 pathway; test: Immunoblotting of p-p38 in HDFs; type: cell-based, human
Protocol: (§1) For in vitro tests, protein lysates were collected from HDFs. Pre-cooled cell scrapers were used to detach the cells, and the cells were re-suspended in RIPA lysis buffer with the inhibitor cocktail. For in vivo tests, wound skin tissues were washed three times with pre-cooled DPBS, dissected into small pieces, and re-suspended in RIPA lysis buffer containing protease and phosphatase inhibitors. Homogenization was then performed thereafter with an ultrasonic processor (Cole Parmer). After centrifugation at 12,000 g for 20 min, the supernatants were collected, and protein concentrations were measured using a Bradford protein assay kit (Bio-rad).
(§2) The protein samples were separated by 10% Mini-PROTEAN TGX stain-free precast gels (Bio-rad) and transferred onto an immune-blot PVDF membrane. The blots were washed three times with DPBS containing 0.1% Tween 20 (PBST), blocked with 5% milk powder in PBST buffer for 40 min, and incubated with primary antibodies at specific dilutions overnight at 4° C. The primary antibodies included rabbit GAPDH antibody (1:5000, Cell signaling), rabbit anti-a-smooth muscle actin (α-SMA) antibody (1:2000, Cell signaling), rabbit anti-phospho-Smad2(Ser465/467)/Smad3 (Ser423/425) (1:500, Cell signaling), and rabbit anti-phospho-p38 (1:500, Cell signaling). The membranes were washed three times with PBST and incubated with horseradish peroxidase (HRP)-conjugated secondary antibodies (1:2500). Immunoblots were then washed with PBST and detected with a WesternBright HRP substrate detection kit (Advansta). The ChemiDoc XPS+system (Bio-rad) was used to image the blots.

[2] = In vitro release of peptide from hydrogel; type: physicochemical; conditions: 21-day study, 37° C., DPBS; loadings 10, 20, 50 μg/mL
Protocol: To characterize the ECG release properties of the NIPAAm-based hydrogels disclosed herein, the following experiments were conducted. Hydrogel samples were synthesized with varying levels of ECG loading: 10 μg/mL, 20 μg/mL, and 50 μg/mL. The cumulative release of ECG from the hydrogel samples was assessed over a three-week period.
Wound dressings were fabricated by encapsulating PTβR2I in the hydrogel solution at 4° C. Briefly, PTβR2I solution was mixed with 6 wt. % hydrogel solution to reach final PTβR2I concentrations of 10 μg/mL, 20 μg/mL and 50 μg/mL. The mixtures were stirred at 4° C. for 12 hours. To determine PTβR2I release kinetics, the mixtures were first incubated at 37° C. to gel. After 1 hour, the supernatant was replaced by a release medium (DPBS with 1% P/S). The medium was then collected at pre-determined time points for 21 days, and a fresh release medium was added after each collection. The concentration of the released PTβR2I was determined by measuring the fluorescence intensity and calculating the corresponding concentration using a standard curve. The bioactivity of the released PTβR2I was evaluated by its ability to bind to the TβR2 on the HDFs. […] After 2 hours of incubation, the cells were washed three times with DPBS, and the fluorescence intensity was measured using a microplate reader (excitation/emission=485/535 nm).

[3] = system: TGFβ1/p-Smad2/3 pathway; test: Immunoblotting/IF of p-Smad2/3 and α-SMA in HDFs; type: cell-based, human
Protocol: as §1, §2

[4] = system: HDFs; test: Cell proliferation (dsDNA) under high glucose and TGFβ1, HDF; type: cell-based, human; conditions: high glucose, TGFβ1 10 ng/ml, PTβR2I 10 μg/mL; p<0.001
Protocol: (§3) HDFs, HaCaTs, and HAECs were seeded in 96-well plates at respective densities of 1.5×10^4 cells/mL, 2×10^4 cells/mL, and 2×10^4 cells/mL. High glucose (4.5 g/L) basal medium with 1% P/S was used for the culture. After 24 hours, TGFβ1 (10 ng/ml) or TGFβ1 (10 ng/ml)/PTβR2I (10 μg/mL) was added to the medium. The culture continued for three days. The medium was then replaced by papain solution and incubated at 60° C. for 24 hours. The dsDNA content was tested using a Quant-iT™ PicoGreen dsDNA Assay Kit (Invitrogen).

[5] = system: HaCaTs; test: mRNA expression (RT-PCR), HaCaTs; type: cell-based, human; conditions: high glucose and TGFβ1
Protocol: (§4) To determine the mRNA expression of the cells (HDFs, HaCaTs, and HAECs) treated with TGFβ1 (10 ng/ml) or TGFβ1 (10 ng/ml)/PTβR2I (10 μg/mL) under high glucose conditions, RNA was extracted using Trizol (Invitrogen) and reverse transcribed using a cDNA synthesis kit (Applied Biosystems). Gene expression was performed by real-time RT-PCR, using Maxima SYBR Green/Fluorescein Master Mix (Thermofisher) and selected primer pairs, shown in Table 1 below. β-actin served as the housekeeping gene. The ΔΔCt method was used for data analysis.

[6] = system: HaCaTs; test: Cell proliferation (dsDNA) under high glucose and TGFβ1, HaCaT; type: cell-based, human; conditions: high glucose, TGFβ1 10 ng/ml, PTβR2I 10 μg/mL; p<0.05
Protocol: as §3

[7] = system: HDF; test: Cytotoxicity of PTβR2I on dermal fibroblasts; type: cell-based, human; parameters: dose or concentration left out as unconfirmed; conditions: 1 to 100
[8] = system: human aortic endothelial cells (HAEC); test: Cytotoxicity of PTβR2I on endothelial cells; type: cell-based; parameters: dose or concentration left out as unconfirmed
[9] = system: wounds of db/+ mice; test: Wound assay on non-diabetic db/+ mice; conditions: mouse, in vivo
Protocol: The same wound assay was performed on db/+ mice and monitored the wound closure for eight days (FIG. 11A). The No-treatment, Gel, and PTβR2I/Gel groups all had similar healing rates, with wound sizes less than 10% of the original after 8 days (FIG. 11B and C). To delineate the mechanism, in vitro immunoblotting was performed on dermal fibroblasts under normal glucose conditions that mimicked the microenvironment of db/+ mice (FIG. 11D).

[10] = system: THP-1-derived CD86+M1 macrophages; test: mRNA expression (RT-PCR), M1 macrophages; type: cell-based, human; conditions: high glucose and TGFβ1
Protocol: Macrophages were derived from THP-1, a human monocytic cell line (ATCC). THP-1 cells were treated with 100 ng/ml phorbol 12-myristate 13-acetate (PMA, Millipore-Sigma, P1585) for 48 hours, followed by 24 hours in RPMI 1640 medium (ATCC) with 10% FBS and 1% P/S. To induce differentiation into M1 macrophages, the cells were treated with 100 pg/mL lipopolysaccharide (LPS, Millipore-Sigma) and 20 ng/ml interferon-gamma (IFN-γ, Millipore-Sigma) for 48 hours.
as §4

Compound: CC(C)C[C@@H]1NC(=O)CNC(=O)[C@@H](NC(=O)[C@@H](N)CCC(=O)O)CSSC[C@@H](C(=O)N[C@@H](CCCCNC(=S)Nc2ccc3c(c2)C(=O)OC32c3ccc(O)cc3Oc3cc(O)ccc32)C(=O)O)NC(=O)[C@H](CC(C)C)NC(=O)[C@H](CCCNC(=N)N)NC(=O)[C@H](Cc2c[nH]c3ccccc23)NC(=O)[C@H](C(C)C)NC(=O)[C@H](CCCNC(=N)N)NC(=O)[C@H](CC(=O)O)NC(=O)[C@@H]2CCCN2C(=O)[C@H](CCCNC(=N)N)NC(=O)CNC(=O)[C@H](C(C)C)NC(=O)[C@@H]2CCCN2C(=O)[C@H](CC(C)C)NC1=O [PTβR2I, ECGLLPVGRPDRVWRLCK-FITC] (H-ECGLLPVGRPDRVWRLCK(FITC)-OH; disulfide 2-17; N-terminus and C-terminus assumed)
- p-p38 expression ([1]; high glucose, with TGFβ1): significantly downregulated
- p-p38 ([1]; normal glucose): did not downregulate
- release profile from wound dressing [2]: initial burst release was observed on the first day, followed by a slower and sustained release until day 21
- phosphorylation of Smad2/3, PTβR2I with TGFβ1 vs TGFβ1 alone ([3]; high glucose): no substantial difference
- α-SMA+ myofibroblast formation in presence of TGFβ1 ([3]; high glucose): regardless of the addition of PTβR2I
- expression of downstream marker α-SMA ([3]; high glucose, TGFβ1): did not alter
- TGFβ1/p-Smad2/3 pathway ([3]; normal glucose): apparently inhibited
- proliferation (dsDNA, day 3) [4]: Significantly improved proliferation
- IL1B mRNA expression [5]: significantly reduced
- IL6 mRNA expression [5]: significantly reduced
- proliferation (dsDNA, day 3) [6]: Significantly improved proliferation
- cell viability [7]: no decrease in viability
- cell viability [8]: no decrease in viability
- efficacy on db/+ mice [9]: not effective
- IL6 mRNA expression [10]: significantly reduced
- PDGFBB gene expression [10]: significantly enhanced

From patent publication US20240181125A1, “COMPOSITIONS AND METHODS FOR SCARLESS WOUND HEALING IN DIABETES” (Washington University, priority 2022, published 2024)
